Literature values, collected in patent US20170274058A1, “Cancer Stem Cell-Targeted Cancer Therapy” (priority 2006, published 2017).
Counter-ions that a name gives are not always drawn.

Tested on: cancer stem cells, including leukemia stem cells
Conditions: background statement, references in Table 1

COc1cccc2c1C(=O)c1c(O)c3c(c(O)c1C2=O)C[C@@](O)(C(C)=O)C[C@@H]3O[C@H]1C[C@H](N)[C@H](O)[C@H](C)O1 [daunorubicin]
resistance of cancer stem cells to the therapy: relatively resistant

CC(C)C[C@H](NC(=O)[C@H](Cc1ccccc1)NC(=O)c1cnccn1)B(O)O [Velcade®]
resistance of cancer stem cells to the therapy: relatively resistant

Nc1ccn([C@@H]2O[C@H](CO)[C@@H](O)[C@@H]2O)c(=O)n1 [Ara-C, cytarabine]
resistance of cancer stem cells to the therapy: relatively resistant

Cc1ccc(NC(=O)c2ccc(CN3CCN(C)CC3)cc2)cc1Nc1nccc(-c2cccnc2)n1 [Gleevec®, imatinib mesylate]
resistance of cancer stem cells to the therapy: relatively resistant
